Measured values taken from patent publication US9795570B2, “Modulation of macrophage phenotype by emodin” (University of South Carolina, priority 2016, dated 2017).

What was measured:
[1] = test system: IRF4; test: IRF4 protein by western blotting; format: cell-based, mouse; conditions: IL4, emodin 0-50 μM, 6 h
Experimental: Following stimulation with IL4 or LPS+IFNγ with or without emodin for varying periods, macrophages were lysed with cell signaling lysis buffer (Millipore) for whole cell lysates. Cytoplasmic and nuclear extracts were prepared using the Epiquik Nuclear Extraction kit (Epigentek, Farmingdale, N.Y.). Total protein was separated on 4-20% Tris-glycine pre-cast gels (Pierce) and transferred onto Nitrocellulose membranes (Bio-Rad Life Science, Hercules, Calif.). The membranes were then probed with HRP conjugated secondary antibodies, and signals were detected using Pierce ECL Western Blotting Substrate (Pierce).

[2] = test system: mouse peritoneal macrophages; test: Macrophage migration assay toward MCP1 (transwell); format: cell-based; conditions: LPS/IFNγ or IL4 stimulated, emodin 50 μM, MCP1 20 ng/ml
Experimental: Macrophages were stimulated with IL4 or LPS+IFNγ for 24 h with or without emodin. The media was then removed and the cells were washed with PBS. The cells were then resuspended in DMEM with scraping and 2×10^5 macrophages were seeded in triplicate into the top chamber of transwell inserts with 8 μm pores (Corning) and place in 24 well plates. Serum free DMEM with 20 ng/ml MCP1 was placed in the bottom of the wells. After 4 h, inserts were fixed in 4% paraformaldehyde for 20 min; the cells in upper inserts were swabbed using cotton buds, and the cells left on the membrane were stained with DAPI (1 μg/ml) for 1 min. The inserts were then cut out, mounted onto slides and imaged under a Nikon Eclipse NI-U fluorescence microscope (Nikon Inc. Melville, N.Y.) at 20× magnification (5 fields/insert). DAPI stained cells were quantified using Nikon NIS-Elements software.

[3] = test system: 4T1 tumors; test: 4T1 breast tumor model in BALB/c mice; format: in vivo
Experimental: C57BL/6 and BALB/c mice (8-12 weeks, female) were purchased from Jackson Labs (Bar Harbor, Me.). They were housed at the University of South Carolina Animal Research Facility, and all procedures were approved by the Institutional Animal Care and Use Committee. EO771 or 4T1 cells (2×10^5) in 20 μL of PBS were injected into the 4th pair of mammary glands on C57BL/6 mice or BALB/C, respectively, on Day 0. Starting on Day 1, emodin (40 mg/kg) or vehicle (2% DMSO) was injected intraperitoneally in 1 ml PBS once daily. The tumor size was measured using a caliper every 2-4 days, and the tumor volume was calculated using a formula: V (mm^3)=L (major axis)×W^2 (minor axis)/2. Mice were sacrificed at various time points.
The tumor draining lymph nodes and tumors were collected, and cell populations were analyzed using flow cytometry. Briefly, cells were stained with anti-CD3 FITC, anti-CD4 APC or anti-CD8 APC, and anti-CD25 PE (Biolegend) in PBS containing 2% FBS for 30 min at 4° C. Samples were washed twice with staining buffer and analyzed by flow cytometry using a BD FACS flow cytometer and CXP software version 2.2 (BD Biosciences, San Jose, Calif.). Data were collected for 20,000 live events per sample.
At sacrifice, tumors were embedded in OCT. They were then cut into 8 μm thick frozen sections and placed on slides. For immunohistochemistry staining, the sections were fixed with 4% paraformaldehyde for 10 min, and then blocked with 0.01 M glycine containing 0.1% Triton x-100. Next, the sections were blocked with 5% BSA. They were then incubated in primary antibody overnight at 4° C.: anti-F4/80 (1:50, Biolegend), anti-pSTAT6 (1:50, Cell Signaling), or anti-C/EBPβ (1:50, Santa Cruz). The sections were washed with PBS and then incubated with secondary antibodies for 1 h at room temperature. The sections were then stained with DAPI (1 μg/mL) and coverslipped with DABCO. Slides were imaged using a Zeiss LSM 510 Confocal microscope (Zeiss, Peabody, Mass.). For quantitative analysis, the number of positive cells was manually counted in six random fields of view per section. CD31 staining was performed according to standard methodology. Slides were imaged on a Nikon ECLIPSE E600 microscope (Nikon, Melville, N.Y.) at 200× magnification (10 fields per section). The integrated optical density (IOD) of CD31 was quantified using Image-Pro Plus software.
Macrophages or T cells were isolated from 4T1 tumors from mice sacrificed at 6 weeks post implantation or from EO771 tumors 5 weeks post implantation, using EasySep™ Mouse PE Positive Selection Kit (Stem Cell Technologies, Vancouver, BC). For cell isolation, 1×10^7-1×10^8 cells were incubated with 20 μL PE conjugated anti-F4/80 (Biolegend) for macrophages or 20 μL PE conjugated anti-CD3 for T cells and 50 μL microbeads. The T cells and macrophages were lysed in Qiazol and used for RT-PCR analysis. For ChIP assays, 5-10×10^6 macrophages were fixed in 1% formaldehyde.
Macrophages were fixed in 1% formaldehyde. Excess formaldehyde was quenched with glycine, and the cells were collected in PBS by scraping. The cells were lysed (0.5% IGEPAL, 4 mM HEPES), and the nuclei were resuspended in nuclear lysis buffer (1% SDS, 10 mM EDTA, and 50 mM Tris, pH 8.1). The DNA was sheared by sonication using a Diagnode Bioruptor Pico (Diagenode, Denville, N.J.) for 25 cycles of 30 s on/30 s off. Then 8 μg chromatin was diluted 1:10 (0.01% SDS, 1.1% Triton X-100, 1.2 mM EDTA, 16.7 mM Tris-HCl, pH 8.1, 167 mM NaCl), and 2% of the input was removed from each sample and saved for analysis. Anti-H3K27m3 (Abcam) was added to each sample along with 20 μL of protein A+G magnetic beads (Millipore), and the samples were incubated overnight at 4° C. The beads were washed with low salt, high salt, LiCl, and TE wash buffers sequentially, and the DNA was eluted off the beads with Proteinase K at 62° C. for 2 h (elution buffer: 200 mM NaCl, 1% SDS and 50 mM Tris). The DNA was then analyzed by qPCR.

[4] = test system: 4T1 cells; test: Tumor cell gene expression (qPCR); format: cell-based, mouse; conditions: 24 h post-treatment
Experimental: (§1) For qPCR, cells were lysed with Qiazol, and RNA was extracted using Zymo research Direct-zol RNA isolation kit. cDNA was then made from 1 μg of RNA using iScript cDNA Synthesis Kit (Bio-Rad Life Science, Hercules, Calif.). Run conditions were 95° C. for 10 s, 58° C. for 15 s, 70° C. for 15 s. Samples were run in duplicate on a Bio-rad CFX Real Time thermocycler.

[5] = test system: EO771 cells; test: Tumor cell gene expression (qPCR); format: cell-based, mouse; conditions: 24 h post-treatment
Experimental: as §1

[6] = 40 mg/kg IP once daily from Day 1

For `Cc1cc(O)c2c(c1)C(=O)c1cc(O)cc(O)c1C2=O` [emodin], which IRF4 protein production [1] is on record?
Its IRF4 protein production is “dose dependently inhibited”.

What about the “macrophage migration toward MCP1” value [2] of the same molecule?
The value was “significantly reduced”.

And the primary tumor growth [3, 6]?
The primary tumor growth was “significant inhibition”.

And the “tumor weight at the endpoint” value [3, 6]?
The value was “significant inhibition”.

And the “fraction of macrophages positive for pSTAT6 and C/EBPβ” value ([3]; 26 days post implantation)?
The value was “significantly reduced”.

What about the “number of macrophages in tumors” value ([3]; 26 days post implantation, tumor size not different) of the same molecule?
Its value is “significantly reduced”.

What about the “H3K27m3 levels on the IRF4 promoter in TAMs” value ([3]; ChIP-qPCR) of the same molecule?
Its value is “significantly increased”.

What about the “expression of IRF4 in TAMs” value ([3]; experimental endpoint, RT-qPCR) of the same molecule?
Its value is “significantly decreased”.

What about the “expression of JMJD3 in TAMs” value ([3]; experimental endpoint, RT-qPCR) of the same molecule?
The value was “significantly decreased”.

And the “activated CD4+ and CD8+ T cells in draining lymph nodes” value ([3]; flow cytometry, CD25)?
The value was “increased”.

And the “IFNγ expression in CD3+ T cells vs control mice” value ([3]; qPCR)?
The value was “two-fold increase”.

And the “expression of MCP1, CSF1, and CSF2” value [4]?
The value was “significantly inhibited”.

What about the “tumor cell expression of Thy1” value [4] of the same molecule?
The value was “significantly inhibited”.

What about the “expression of MCP1, CSF1, and CSF2” value [5] of the same molecule?
The value was “significantly inhibited”.

What about the “tumor cell expression of Thy1” value [5] of the same molecule?
The value was “significantly inhibited”.
